Read-outs that look alike come from different tables or passages of the source.

Assay [1] deals with HL60 cells. The experiment in a line: Combination treatment with cytotoxic agents, WST-1 assay, HL60. The class given is cell-based. The following applies: Homo sapiens, HL-60, 72 h; read-out: cell growth/viability, mean percentage normalized to the untreated control.
In another assay the test system is KMS26 cell line. The experiment in a line: Standalone cytotoxicity, WST-1 colorimetric assay, KMS26. The following applies: Homo sapiens, KMS-26. The format is cell-based. On the procedure:
(§1) All the cell lines were grown at density of 1×10^5 cells per ml and seeded (100 μl of cell suspension/well) on 96-well microtiter plates with or without escalating doses of SMAC-mimic compounds. Cells were incubated at 37° C. in a 5% CO2 fully humidified atmosphere and examined at 24, 48 and 72 hours for cytotoxicity with the WST-1 colorimetric assay. […] Data are expressed as mean percentage of three replicates normalized to the untreated control.
In general terms: Tetrazolium dyes change colour on reduction, which living cells bring about.

In another assay the test system is MDA-MB-231 cells. The experiment in a line: Standalone cytotoxicity, MTT assay, MDA-MB-231. The format is cell-based. The following applies: Homo sapiens; for IC80: read-out: IC80 (μM ± standard Deviation); for IC50: read-out: IC50 (μM ± standard Deviation). As to the method:
Reagents for cell culture were purchased from Sigma unless otherwise indicated below. […] A subcultivation ratio of 1:4 was used.
The cellular growth inhibitory effect of our compounds was evaluated using the MTT assay (Sigma). After 96 hours of treatment, 10 μl of MTT reagent solution (5 mg of MTT powder/ml diluted in Phosphate Buffer Salt saline solution) were added in each well and allowed to react for 3 hours in the incubator. After 3 hours cells were solubilized in Lysis Buffer (10% SDS/0.1% HCl in water, 100 μl for each well) for 24 hours at 37° C. Finally, the absorbance was measured at 570 nm using a multiplate reader. Absorbance values were collected and IC50/IC80 values were determined using GraphPad Prism 5 software. The experiments were repeated twice.
MDA-MB-231 cells were seeded in 96-well flat bottom cell culture plates at a density of 5000 cells/well in 100 μl of culture medium and allowed to adhere for 24 hours in the incubator. After 24 hours MDA-MB-231 cells were exposed to the compounds at various concentrations for 96 hours in the incubator (50 nM, 100 nM, 200 nM, 500 nM, 1 μM, 5 μM, 10 μM, 50 μM and 100 μM). Each point was done in triplicate.
After 96 hours of treatment, 10 μl of MTT reagent solution (5 mg of MTT powder/ml diluted in Phosphate Buffer Salt saline solution) were added in each well and allowed to react for 3 hours in the incubator. After 3 hours cells were solubilized in Lysis Buffer (10% SDS/0.1% HCl in water, 100 μl for each well) for 24 hours at 37° C. Finally, the absorbance was measured at 570 nm using a multiplate reader. Absorbance values were collected and IC50/IC80 values were determined using GraphPad Prism 5 software. The experiments were repeated twice.

For the next assay, the system named is ARH77 cell line. The experiment in a line: Standalone cytotoxicity, WST-1 colorimetric assay, ARH77. The class given is cell-based. The following applies: Homo sapiens, ARH-77. As to the method: as §1, with “HL60 and K562 human cell lines were cultured in RPMI 1640 culture medium supplemented with 10% FBS while the ARH77 and KMS26 cell lines were cultured in IMDM culture medium supplemented with 10% FBS. All” for “All”

Assay [2] deals with K562 cells. The experiment in a line: Combination treatment with cytotoxic agents, WST-1 assay, K562. The following applies: Homo sapiens, K562, 72 h, read-out: cell growth/viability, mean percentage normalized to the untreated control.
Assay [3] relates to K562 cells. Briefly: Standalone cytotoxicity, WST-1 colorimetric assay, K562. The format is cell-based. The following applies: Homo sapiens. On the procedure: as §1
Assay [4] has as its system HL60 cells. Briefly: Standalone cytotoxicity, WST-1 colorimetric assay, HL60. The format is cell-based. The following applies: Homo sapiens, HL-60. As to the method:
as §1

For the next assay, the target named is T1, human XIAP BIR3 domain (Homo sapiens, UniProt P98170).
T1 construct: human XIAP BIR3 domain from residue 241 to 356; made in house; host or cells: Escherichia coli BL21
T1 sequence (P98170 241-356): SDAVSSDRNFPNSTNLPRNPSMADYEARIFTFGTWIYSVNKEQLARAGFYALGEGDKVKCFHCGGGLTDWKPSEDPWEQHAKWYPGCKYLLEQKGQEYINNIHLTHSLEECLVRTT
The experiment in a line: Fluorescence polarization competitive binding, displacement of FITC-SMAC probe from XIAP BIR3-His-tag. The following applies: XIAP BIR3, average of three independent measurements. As to the method:
(§2) Data were analyzed using Prism 4.0 software (Graphpad Software).
(Polarisation of emitted light reports the rotation of a fluorescent probe.)

Assay [5] addresses T2, human XIAP linker-BIR2-BIR3 (Homo sapiens, UniProt P98170).
T2 construct: human XIAP from residue 124 to 356 (linker-BIR2-BIR3); made in house; host or cells: Escherichia coli BL21
The experiment in a line: Fluorescence polarization competitive binding, displacement of SMAC-1F probe from XIAP linker-BIR2-BIR3-His-tag. Conditions: XIAP linker-BIR2-BIR3, average of three independent measurements. As to the method:
as §2

A further assay has as its target XIAP (Homo sapiens, UniProt P98170). The following applies: background statement; cited from earlier work.

Chain of XIAP (P98170 whole entry): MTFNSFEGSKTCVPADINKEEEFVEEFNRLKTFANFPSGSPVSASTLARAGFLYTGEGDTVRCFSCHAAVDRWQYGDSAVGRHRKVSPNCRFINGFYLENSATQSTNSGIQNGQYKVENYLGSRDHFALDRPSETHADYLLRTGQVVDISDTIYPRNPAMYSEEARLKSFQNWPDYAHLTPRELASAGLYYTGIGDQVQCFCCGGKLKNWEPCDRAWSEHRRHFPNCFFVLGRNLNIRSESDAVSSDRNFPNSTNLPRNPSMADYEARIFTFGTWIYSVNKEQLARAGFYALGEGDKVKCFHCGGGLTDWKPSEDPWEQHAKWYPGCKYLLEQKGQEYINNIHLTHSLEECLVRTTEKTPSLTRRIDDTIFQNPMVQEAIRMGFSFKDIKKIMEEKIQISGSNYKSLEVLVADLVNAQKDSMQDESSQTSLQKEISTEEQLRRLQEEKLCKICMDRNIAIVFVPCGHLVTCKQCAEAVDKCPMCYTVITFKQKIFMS
T2 sequence (P98170 124-356): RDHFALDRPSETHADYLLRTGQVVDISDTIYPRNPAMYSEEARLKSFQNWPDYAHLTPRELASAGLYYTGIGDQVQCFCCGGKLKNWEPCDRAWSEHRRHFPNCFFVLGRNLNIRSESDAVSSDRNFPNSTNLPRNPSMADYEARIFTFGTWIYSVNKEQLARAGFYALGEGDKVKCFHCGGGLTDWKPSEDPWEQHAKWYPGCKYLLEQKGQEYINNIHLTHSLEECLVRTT

As a reminder, the IC50 is the concentration that inhibits the measured activity by half. By IC80 is commonly meant the concentration needed for an effect of 80%. As to `CC[C@H](N)C(=O)N[C@@H]1C(=O)N2[C@@H](CC[C@@H]1CO)CC[C@H]2C(=O)NC(c1ccccc1)c1ccccc1` [Compound 24a], the viability at 0.01 µM with HL60 cells [1] amounted to 110%. For the same molecule, the IC50 with KMS26 cell line (KMS26, 24 hrs) was above 10000 nM; in the assay on ARH77 cell line (ARH77, 24 hrs) it was above 10000 nM; in the assay with ARH77 cell line (ARH77, 48 hrs), above 10000 nM; with ARH77 cell line (ARH77, 72 hrs), above 10000 nM; with K562 cells [3] (K562, 24 hrs) it was above 10000 nM; in the assay on K562 cells [3] (K562, 48 hrs), above 10000 nM. Besides, the IC50 with K562 cells [3] (K562, 72 hrs) is above 10000 nM; with HL60 cells [4] (HL60, 24 hrs), above 10000 nM. In the assay on MDA-MB-231 cells (MDA-MB-231, 96 hours, MTT), the IC80 turned out to be 3.9 ± 0.07 µM. In addition, the viability at 0.05 µM in the assay on K562 cells [2] came to 90%.

Turning to `CC[C@H](NC)C(=O)N[C@@H]1C(=O)N2[C@@H](CC[C@@H]1CO)CC[C@H]2C(=O)NC(c1ccccc1)c1ccccc1` [Compound 24g], the IC50 with MDA-MB-231 cells (MDA-MB-231, 96 h) is 0.237 ± 0.003 µM. Further, in the assay with MDA-MB-231 cells (MDA-MB-231, 96 hours, MTT), the IC80 worked out at 0.87 ± 0.004 µM.

In the case of `CC[C@H](N)C(=O)N[C@@H]1C(=O)N2[C@@H](CC[C@@H]1CN=[N+]=[N-])CC[C@H]2C(=O)NC(c1ccccc1)c1ccccc1` [Compound 25a], the IC50 with K562 cells [3] (K562, 24 hrs) was 4780 nM; in the assay with K562 cells [3] (K562, 48 hrs), 3950 nM; in the assay on K562 cells [3] (K562, 72 hrs), 2130 nM; in the assay on HL60 cells [4] (HL60, 24 hrs) it was above 10000 nM; in the assay on HL60 cells [4] (HL60, 48 hrs), 3320 nM; in the assay on HL60 cells [4] (HL60, 72 hrs), 1.8 nM.

`CC[C@H](N)C(=O)N[C@@H]1C(=O)N2[C@@H](CC[C@@H]1CN)CC[C@H]2C(=O)NC(c1ccccc1)c1ccccc1` [Compound 26a]: the IC50 was above 10000 nM in the assay on KMS26 cell line (KMS26, 24 hrs); 0.002 nM in the assay on KMS26 cell line (KMS26, 48 hrs); 62.3 nM in the assay with KMS26 cell line (KMS26, 72 hrs); above 10000 nM with ARH77 cell line (ARH77, 24 hrs); above 10000 nM in the assay on ARH77 cell line (ARH77, 48 hrs); above 10000 nM in the assay on ARH77 cell line (ARH77, 72 hrs). In addition, the IC50 amounted to 593 nM in the assay on K562 cells [3] (K562, 24 hrs); 0.06 nM in the assay with K562 cells [3] (K562, 48 hrs); 0.08 nM in the assay on K562 cells [3] (K562, 72 hrs).

Consider `CC[C@H](N)C(=O)N[C@@H]1C(=O)N2[C@@H](CC[C@@H]1COC(C)=O)CC[C@H]2C(=O)NC(c1ccccc1)c1ccccc1` [Compound 30a], for which the IC50 is above 10000 nM in the assay with K562 cells [3] (K562, 24 hrs); above 10000 nM with K562 cells [3] (K562, 48 hrs); above 10000 nM with K562 cells [3] (K562, 72 hrs); above 10000 nM with HL60 cells [4] (HL60, 24 hrs); 1790 nM in the assay on HL60 cells [4] (HL60, 48 hrs); 623 nM in the assay with HL60 cells [4] (HL60, 72 hrs).

In the case of `CC[C@H](N)C(=O)N[C@@H]1C(=O)N2[C@@H](CC[C@@H]1CCN)CC[C@H]2C(=O)NC(c1ccccc1)c1ccccc1` [Compound 38a], the IC50 is 324 nM on human XIAP BIR3 domain; 85 nM in [5]; 12.9 ± 0.3 µM with MDA-MB-231 cells (MDA-MB-231, 96 hours, MTT). For the same molecule, in the assay with MDA-MB-231 cells (MDA-MB-231, 96 hours, MTT), the IC80 worked out at 33.9 ± 0.7 µM.

As for `CC[C@H](NC)C(=O)N[C@@H]1C(=O)N2[C@@H](CC[C@@H]1CCN)CC[C@H]2C(=O)NC(c1ccccc1)c1ccccc1` [Compound 38d], the IC50 in the assay with MDA-MB-231 cells (MDA-MB-231, 96 h) is 2.3 ± 1.2 µM. The IC80 with MDA-MB-231 cells (MDA-MB-231, 96 hours, MTT) was found to be 14.8 ± 1 µM.

On to `CC[C@H](N)C(=O)N[C@@H]1C(=O)N2[C@@H](CC[C@@H]1Cn1cc(CO[C@H](C)[C@H](NC(=O)[C@H](C)NC)C(=O)N3CCC[C@H]3Cn3nnnc3Sc3ccccc3)nn1)CC[C@H]2C(=O)NC(c1ccccc1)c1ccccc1` [Compound 44a], for which the IC50 was 0.168 ± 0.002 µM with MDA-MB-231 cells (MDA-MB-231, 96 hours, MTT); above 10000 nM in the assay with ARH77 cell line (ARH77, 24 hrs); above 10000 nM in the assay on ARH77 cell line (ARH77, 48 hrs); above 10000 nM with ARH77 cell line (ARH77, 72 hrs). Also, the IC80 in the assay with MDA-MB-231 cells (MDA-MB-231, 96 hours, MTT) came to 0.288 ± 0.003 µM. Further, the viability at 0.0001 µM with K562 cells [2] was 89%.

Turning to `CC[C@H](N)C(=O)N[C@@H]1C(=O)N2C(CC[C@@H]1CNC(=O)CCC#CC#CCCC(=O)NC[C@H]1CC[C@H]3CC[C@@H](C(=O)NC(c4ccccc4)c4ccccc4)N3C(=O)[C@H]1NC(=O)[C@@H](N)CC)CC[C@H]2C(=O)NC(c1ccccc1)c1ccccc1` (some centres unmarked) [Compound 46a], in the assay with MDA-MB-231 cells (MDA-MB-231, 96 hours, MTT), the IC50 was found to be 0.116 ± 0.002 µM and the IC80 is 0.17 ± 0.002 µM.

In the case of `CC(=O)O[C@H]1C(=O)[C@@]2(C)[C@H]([C@H](OC(=O)c3ccccc3)[C@]3(O)C[C@H](OC(=O)[C@H](O)[C@@H](NC(=O)c4ccccc4)c4ccccc4)C(C)=C1C3(C)C)[C@]1(OC(C)=O)CO[C@@H]1C[C@@H]2O` [Taxol, taxol, reference compound], the viability at 0.1 µM in the assay on K562 cells [2] was 69%.

B1: mature Smac protein: mature Smac/DIABLO protein, endogenous inhibitor of XIAP (protein, UniProt Q9NR28 22-239, looked up)
Diablo IAP-binding …: LCVPVVANFKKRCFSELIRPWHKTVTIGFGVTLCAVPIAQKSEPHSLSSEALMRRAVSLVTDSTSTFLSQTTYALIEAITEYTKAVYTLTSLYRQYTSLLGKMNSEEEDEVWQVIIGARAEMTSKHQEYLKLETTWMTAVGLSEMAAEAAYQTGADQASITARNHIQLVKLQVEEVHQLSRKAETKLAEAQIEELRQKTQEEGEERAESEQEAYLRED
By Kd is commonly meant the equilibrium constant for the complex coming apart. Regarding B1, the Kd in the assay with XIAP is 420 nM.

The values are drawn from US8609685B2, “SMAC mimetic compounds as apoptosis inducers” (CISI SCRL, priority 2007, dated 2013).
